Test results taken from ChEMBL document CHEMBL1201862, “PubChem BioAssay data set” (2004).
Calls of active or inactive are those of the source.

Experiments:
[1] = target: T1, Corticotropin-releasing factor receptor 2/Corticotropin-releasing factor-binding protein (Homo sapiens, UniProt P24387+Q13324); test: Dose Response confirmation of uHTS hits for small molecule antagonists of the CRF-binding protein and CRF-R2 receptor complex.; format: functional; conditions: read-out: IC50_Mean
T1 sequence (Q13324 whole entry): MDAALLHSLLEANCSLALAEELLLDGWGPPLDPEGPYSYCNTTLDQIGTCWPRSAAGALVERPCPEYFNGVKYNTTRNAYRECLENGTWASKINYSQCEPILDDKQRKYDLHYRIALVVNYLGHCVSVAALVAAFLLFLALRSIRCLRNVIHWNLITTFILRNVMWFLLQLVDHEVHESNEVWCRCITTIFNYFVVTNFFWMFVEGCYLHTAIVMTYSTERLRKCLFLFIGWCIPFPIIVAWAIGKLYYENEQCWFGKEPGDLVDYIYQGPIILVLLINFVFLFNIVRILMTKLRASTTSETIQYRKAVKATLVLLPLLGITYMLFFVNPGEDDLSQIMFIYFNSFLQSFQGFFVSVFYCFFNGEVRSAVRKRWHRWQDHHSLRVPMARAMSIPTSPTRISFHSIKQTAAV
T1 sequence (P24387 whole entry): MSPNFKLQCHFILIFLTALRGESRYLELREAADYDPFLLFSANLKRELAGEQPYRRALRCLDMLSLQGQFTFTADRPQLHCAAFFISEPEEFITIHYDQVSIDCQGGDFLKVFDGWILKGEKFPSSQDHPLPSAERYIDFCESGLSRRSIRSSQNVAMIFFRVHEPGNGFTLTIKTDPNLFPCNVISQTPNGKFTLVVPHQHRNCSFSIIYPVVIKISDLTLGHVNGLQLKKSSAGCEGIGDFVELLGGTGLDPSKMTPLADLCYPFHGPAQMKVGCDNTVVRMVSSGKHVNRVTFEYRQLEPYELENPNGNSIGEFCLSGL

[2] = target: T2, Leucine aminopeptidase (Plasmodium falciparum 3D7, UniProt Q8IL11); test: P. falciparum M17LAP inhibitors, primary screen, biochemical, fluorogenic H-Leu-NHMec substrate, 1536-well (AID 1619); format: functional
T2 sequence (Q8IL11 whole entry): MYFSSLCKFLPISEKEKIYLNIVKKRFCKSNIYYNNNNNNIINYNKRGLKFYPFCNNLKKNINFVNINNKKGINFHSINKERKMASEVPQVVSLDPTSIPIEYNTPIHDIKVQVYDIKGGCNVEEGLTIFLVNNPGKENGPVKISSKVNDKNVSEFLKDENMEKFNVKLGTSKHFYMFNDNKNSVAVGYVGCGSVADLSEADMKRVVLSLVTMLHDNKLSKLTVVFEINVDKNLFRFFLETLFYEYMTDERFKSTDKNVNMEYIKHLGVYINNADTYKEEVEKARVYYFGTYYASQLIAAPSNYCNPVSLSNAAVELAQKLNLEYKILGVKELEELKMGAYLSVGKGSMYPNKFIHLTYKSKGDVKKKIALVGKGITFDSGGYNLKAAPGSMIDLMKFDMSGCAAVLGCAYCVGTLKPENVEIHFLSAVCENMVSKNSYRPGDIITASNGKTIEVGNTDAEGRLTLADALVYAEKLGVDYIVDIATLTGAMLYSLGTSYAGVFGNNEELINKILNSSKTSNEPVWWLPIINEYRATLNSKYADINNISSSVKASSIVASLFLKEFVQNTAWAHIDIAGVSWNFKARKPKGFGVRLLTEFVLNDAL

[3] = blockers of CRF-binding protein–CRF-R2 complex – cell-based, uHTS hits, 384-well, dose response (AID 651639); format: functional, Homo sapiens; conditions: read-out: IC50_Mean
[4] = target: Procathepsin L (Homo sapiens, UniProt P07711); test: CTSL1 protease inhibition – biochemical, QFRET, 1536-well, counter-screen for M1/M17 aminopeptidase inhibitor project, dose response (AID 2214)
[5] = target: T3, Aspartyl aminopeptidase (Plasmodium falciparum 3D7, UniProt Q8I2J3); test: Counterscreen for inhibitors of M1 and M17 aminopeptidases: QFRET-based biochemical high throughput dose response assay for inhibitors of the Plasmodium falciparum M18 Aspartyl Aminopeptidase (PFM18AAP). [Related PubChem assays: 1619 (Screening assay (M17LAP inhibitors).), 1445 (Screening assay (M1AAP inhibitors).)]
T3 sequence (Q8I2J3 whole entry): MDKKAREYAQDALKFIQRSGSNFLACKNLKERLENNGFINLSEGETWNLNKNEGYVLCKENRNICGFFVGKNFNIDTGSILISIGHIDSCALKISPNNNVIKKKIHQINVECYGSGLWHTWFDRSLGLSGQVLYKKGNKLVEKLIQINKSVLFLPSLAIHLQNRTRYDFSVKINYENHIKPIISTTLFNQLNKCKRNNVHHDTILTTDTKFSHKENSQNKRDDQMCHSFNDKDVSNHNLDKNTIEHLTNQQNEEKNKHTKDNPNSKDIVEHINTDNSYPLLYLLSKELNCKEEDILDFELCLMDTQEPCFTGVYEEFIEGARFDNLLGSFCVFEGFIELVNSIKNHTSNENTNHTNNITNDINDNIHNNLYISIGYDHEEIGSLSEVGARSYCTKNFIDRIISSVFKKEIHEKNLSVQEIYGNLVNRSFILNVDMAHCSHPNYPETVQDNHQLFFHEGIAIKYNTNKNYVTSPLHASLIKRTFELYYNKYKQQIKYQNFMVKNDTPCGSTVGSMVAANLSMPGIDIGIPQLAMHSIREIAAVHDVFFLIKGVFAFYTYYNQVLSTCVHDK

[6] = target: T1, Corticotropin-releasing factor receptor 2/Corticotropin-releasing factor-binding protein; test: activators of CRF receptor 2 with binding protein – uHTS hits, confirmation (AID 602473); format: functional; conditions: read-out: EC50_Mean
[7] = target: T4, Estrogen receptor (Homo sapiens, UniProt P03372);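 also: potency for inhibiting coactivator peptide recruitment to the receptor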
T4 sequence (P03372 whole entry): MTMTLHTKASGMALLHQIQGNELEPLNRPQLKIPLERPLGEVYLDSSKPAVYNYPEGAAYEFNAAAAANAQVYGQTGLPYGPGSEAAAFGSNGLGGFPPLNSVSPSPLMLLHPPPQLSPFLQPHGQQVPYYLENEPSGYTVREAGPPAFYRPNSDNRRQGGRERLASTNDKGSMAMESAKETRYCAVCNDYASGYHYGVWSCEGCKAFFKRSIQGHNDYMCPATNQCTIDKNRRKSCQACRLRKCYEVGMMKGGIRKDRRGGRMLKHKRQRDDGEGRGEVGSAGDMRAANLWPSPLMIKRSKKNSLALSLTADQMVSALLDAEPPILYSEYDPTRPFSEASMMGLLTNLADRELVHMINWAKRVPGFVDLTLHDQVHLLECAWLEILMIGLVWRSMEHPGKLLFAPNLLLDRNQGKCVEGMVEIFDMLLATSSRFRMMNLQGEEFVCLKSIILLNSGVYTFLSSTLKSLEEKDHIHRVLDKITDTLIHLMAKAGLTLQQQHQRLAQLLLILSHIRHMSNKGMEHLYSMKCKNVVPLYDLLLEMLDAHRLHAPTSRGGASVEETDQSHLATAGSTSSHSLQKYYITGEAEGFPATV

[8] = target: Estrogen receptor beta (Homo sapiens, UniProt Q92731);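 also: recombinant ER-beta bound to coactivator SRC1 peptide in presence of estradiol agonist; inhibitors block coactivator peptide binding and lower the FRET signal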
[9] = target: T5, Protein skinhead-1 (Caenorhabditis elegans, UniProt P34707); format: functional
T5 sequence (P34707 whole entry): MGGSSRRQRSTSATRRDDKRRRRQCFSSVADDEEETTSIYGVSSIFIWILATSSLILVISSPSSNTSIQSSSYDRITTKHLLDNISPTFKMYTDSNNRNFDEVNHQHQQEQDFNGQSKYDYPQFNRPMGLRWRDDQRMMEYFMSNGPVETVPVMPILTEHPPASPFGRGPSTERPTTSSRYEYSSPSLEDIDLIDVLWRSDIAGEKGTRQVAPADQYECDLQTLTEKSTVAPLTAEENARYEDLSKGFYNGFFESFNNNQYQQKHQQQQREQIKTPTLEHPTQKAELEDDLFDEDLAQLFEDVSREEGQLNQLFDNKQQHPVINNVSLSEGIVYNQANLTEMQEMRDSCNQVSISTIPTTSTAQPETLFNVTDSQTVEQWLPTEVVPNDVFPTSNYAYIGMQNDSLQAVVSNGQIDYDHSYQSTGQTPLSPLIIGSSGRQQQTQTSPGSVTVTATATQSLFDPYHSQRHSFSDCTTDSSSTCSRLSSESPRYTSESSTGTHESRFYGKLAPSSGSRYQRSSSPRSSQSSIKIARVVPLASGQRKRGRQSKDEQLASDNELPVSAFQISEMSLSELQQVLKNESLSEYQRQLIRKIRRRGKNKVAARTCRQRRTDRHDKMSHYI

[10] = target: T6, Aminopeptidase N (Plasmodium falciparum FcB1/Columbia, UniProt O96935); test: malaria alanyl aminopeptidase activity blockers – biochemical, fluorogenic H-Leu-NHMec substrate, 1536-well (AID 1445); set-up: species or system Plasmodium falciparum 3D7, 3D7
T6 sequence (O96935 whole entry): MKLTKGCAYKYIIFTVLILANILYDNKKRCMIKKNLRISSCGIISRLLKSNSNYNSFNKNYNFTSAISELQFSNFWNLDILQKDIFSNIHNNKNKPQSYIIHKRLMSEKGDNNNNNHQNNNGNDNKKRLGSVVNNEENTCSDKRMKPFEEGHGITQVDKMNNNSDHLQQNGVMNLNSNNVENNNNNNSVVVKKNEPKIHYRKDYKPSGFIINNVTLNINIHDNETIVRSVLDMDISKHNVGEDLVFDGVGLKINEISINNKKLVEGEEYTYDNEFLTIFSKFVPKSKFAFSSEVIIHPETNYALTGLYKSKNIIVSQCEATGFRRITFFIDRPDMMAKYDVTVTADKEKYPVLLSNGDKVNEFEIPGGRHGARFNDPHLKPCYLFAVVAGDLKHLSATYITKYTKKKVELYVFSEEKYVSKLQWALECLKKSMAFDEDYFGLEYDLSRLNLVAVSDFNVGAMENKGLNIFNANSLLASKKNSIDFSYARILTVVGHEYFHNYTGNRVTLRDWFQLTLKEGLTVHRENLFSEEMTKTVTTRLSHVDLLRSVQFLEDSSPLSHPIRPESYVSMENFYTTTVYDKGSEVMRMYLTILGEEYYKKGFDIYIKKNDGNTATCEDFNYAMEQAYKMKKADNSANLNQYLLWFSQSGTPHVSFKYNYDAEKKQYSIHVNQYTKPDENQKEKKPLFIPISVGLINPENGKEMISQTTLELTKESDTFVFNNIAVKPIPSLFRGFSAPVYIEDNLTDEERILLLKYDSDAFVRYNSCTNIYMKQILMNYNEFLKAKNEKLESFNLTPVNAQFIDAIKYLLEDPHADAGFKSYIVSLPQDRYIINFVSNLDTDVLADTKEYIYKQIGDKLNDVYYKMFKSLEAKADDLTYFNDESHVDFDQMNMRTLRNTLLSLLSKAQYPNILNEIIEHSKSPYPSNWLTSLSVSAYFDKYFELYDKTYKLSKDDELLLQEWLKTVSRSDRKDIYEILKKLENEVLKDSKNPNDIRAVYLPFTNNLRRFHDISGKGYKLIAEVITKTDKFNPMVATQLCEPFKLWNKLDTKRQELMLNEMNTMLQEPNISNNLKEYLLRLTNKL

[11] = target: Genome polyprotein (dengue virus type 2, UniProt P29990); test: flavivirus cap methylation enzyme inhibition – biochemical, confirmation dose response, primary screen (AID 588689); format: functional
[12] = target: T7, Short transient receptor potential channel 4 (Mus musculus, UniProt Q9QUQ5); test: block of DAMGO-driven TRPC4 calcium entry – cell-based, HEK293 TRPC4/mu-opioid, Fluo-4 calcium, dose response (AID 434942); format: functional;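 also: potency of inhibitors blocking the TRPC4 calcium response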
T7 sequence (Q9QUQ5 whole entry): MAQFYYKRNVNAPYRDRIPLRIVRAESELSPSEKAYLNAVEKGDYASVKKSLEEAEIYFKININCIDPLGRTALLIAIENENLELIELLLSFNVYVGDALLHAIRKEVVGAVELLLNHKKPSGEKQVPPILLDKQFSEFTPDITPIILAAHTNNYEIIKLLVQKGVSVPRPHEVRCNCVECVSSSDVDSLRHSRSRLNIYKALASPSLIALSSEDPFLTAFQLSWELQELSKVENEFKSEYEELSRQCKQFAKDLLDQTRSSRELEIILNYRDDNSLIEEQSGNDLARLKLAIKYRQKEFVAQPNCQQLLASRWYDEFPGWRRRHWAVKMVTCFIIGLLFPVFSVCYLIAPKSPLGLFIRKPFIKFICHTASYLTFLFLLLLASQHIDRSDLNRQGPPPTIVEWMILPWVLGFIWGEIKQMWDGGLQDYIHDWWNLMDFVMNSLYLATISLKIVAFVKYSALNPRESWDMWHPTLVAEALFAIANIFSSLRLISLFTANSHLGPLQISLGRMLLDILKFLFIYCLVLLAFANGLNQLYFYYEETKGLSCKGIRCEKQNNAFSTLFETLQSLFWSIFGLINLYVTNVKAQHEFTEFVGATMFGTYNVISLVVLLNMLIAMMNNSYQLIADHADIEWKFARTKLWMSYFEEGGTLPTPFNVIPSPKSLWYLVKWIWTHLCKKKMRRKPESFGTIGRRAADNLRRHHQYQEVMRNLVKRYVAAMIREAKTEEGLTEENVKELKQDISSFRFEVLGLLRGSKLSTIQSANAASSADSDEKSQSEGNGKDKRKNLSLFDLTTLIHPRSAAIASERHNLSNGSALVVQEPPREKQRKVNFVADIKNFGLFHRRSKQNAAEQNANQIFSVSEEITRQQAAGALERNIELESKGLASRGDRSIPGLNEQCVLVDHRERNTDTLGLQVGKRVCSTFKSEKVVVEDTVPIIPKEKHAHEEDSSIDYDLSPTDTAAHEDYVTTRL

Chain of Procathepsin L (P07711 whole entry): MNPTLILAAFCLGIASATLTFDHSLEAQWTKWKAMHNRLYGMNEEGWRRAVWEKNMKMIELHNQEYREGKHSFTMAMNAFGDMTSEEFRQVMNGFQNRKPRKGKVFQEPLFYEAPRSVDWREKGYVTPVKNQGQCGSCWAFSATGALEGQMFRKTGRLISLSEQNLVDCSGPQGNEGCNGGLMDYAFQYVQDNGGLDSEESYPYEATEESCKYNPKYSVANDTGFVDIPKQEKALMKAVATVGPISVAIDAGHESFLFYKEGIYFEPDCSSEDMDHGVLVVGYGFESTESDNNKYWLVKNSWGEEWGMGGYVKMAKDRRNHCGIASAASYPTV
Chain of Estrogen receptor beta (Q92731 whole entry): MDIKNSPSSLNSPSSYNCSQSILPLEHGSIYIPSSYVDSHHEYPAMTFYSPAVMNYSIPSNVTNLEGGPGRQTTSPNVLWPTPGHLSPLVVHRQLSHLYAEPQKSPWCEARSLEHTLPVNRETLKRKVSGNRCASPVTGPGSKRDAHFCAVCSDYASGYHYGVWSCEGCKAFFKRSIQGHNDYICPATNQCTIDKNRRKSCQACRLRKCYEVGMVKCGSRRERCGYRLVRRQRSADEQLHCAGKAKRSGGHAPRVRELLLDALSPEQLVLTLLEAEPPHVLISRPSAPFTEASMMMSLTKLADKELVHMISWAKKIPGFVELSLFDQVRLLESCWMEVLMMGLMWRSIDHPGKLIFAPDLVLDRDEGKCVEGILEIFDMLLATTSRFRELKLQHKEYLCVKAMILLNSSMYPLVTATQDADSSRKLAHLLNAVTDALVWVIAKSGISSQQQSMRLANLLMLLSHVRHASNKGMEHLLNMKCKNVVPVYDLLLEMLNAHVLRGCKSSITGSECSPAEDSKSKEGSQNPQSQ
Chain of Genome polyprotein (P29990 2492-3391 limits assumed): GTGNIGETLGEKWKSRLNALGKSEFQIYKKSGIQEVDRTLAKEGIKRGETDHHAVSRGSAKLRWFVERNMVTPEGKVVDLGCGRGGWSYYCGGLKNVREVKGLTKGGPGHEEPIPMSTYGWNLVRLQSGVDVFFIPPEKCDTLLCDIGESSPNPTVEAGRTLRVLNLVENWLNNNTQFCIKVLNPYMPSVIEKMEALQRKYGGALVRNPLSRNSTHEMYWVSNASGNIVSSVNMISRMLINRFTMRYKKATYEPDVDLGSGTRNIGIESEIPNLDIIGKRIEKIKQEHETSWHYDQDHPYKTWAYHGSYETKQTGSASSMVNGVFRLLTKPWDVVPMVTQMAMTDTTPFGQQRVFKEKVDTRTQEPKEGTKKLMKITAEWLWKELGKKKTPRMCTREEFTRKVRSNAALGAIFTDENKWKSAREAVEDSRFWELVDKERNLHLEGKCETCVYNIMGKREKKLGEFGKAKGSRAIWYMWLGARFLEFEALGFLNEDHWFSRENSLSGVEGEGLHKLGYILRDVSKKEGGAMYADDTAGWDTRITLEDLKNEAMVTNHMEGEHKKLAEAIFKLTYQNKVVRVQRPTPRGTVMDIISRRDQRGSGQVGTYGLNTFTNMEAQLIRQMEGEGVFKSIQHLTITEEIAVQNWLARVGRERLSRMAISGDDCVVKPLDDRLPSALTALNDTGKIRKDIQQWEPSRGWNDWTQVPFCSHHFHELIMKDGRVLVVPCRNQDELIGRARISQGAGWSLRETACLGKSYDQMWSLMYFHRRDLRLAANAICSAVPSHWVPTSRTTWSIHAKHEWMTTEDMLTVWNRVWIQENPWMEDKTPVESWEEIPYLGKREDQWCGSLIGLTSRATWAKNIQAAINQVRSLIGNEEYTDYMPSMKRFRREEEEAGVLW

IC50 [2] | IC50 [4] | IC50 [5] | IC50 [7] | also measured | Compound
< 1 µM (active) | 59.3 µM (not active) | > 73.5 µM (not active) |  | IC50 [1]: 10.1 µM (active); IC50 [3]: > 20 µM (inactive); EC50 [6]: > 53 µM (inactive) | COc1cc(NC(=O)CSc2nc3c(C)ccc(C)c3cc2C)c(C(=O)O)cc1OC
 |  |  | 26.5 µM (active) | IC50 [8]: 16.1 µM (active) | Cc1ccc(C(=O)CSC2=C(C#N)C(c3ccco3)CC(=O)N2)c(C)c1 (centres undefined)
 |  |  | > 50 µM (not active) | IC50 [9]: 38.9 µM (active) | Cc1cc(Cl)cc(C)c1OCCCCN1CCOCC1
 |  |  |  | IC50 [10]: 52.3 µM (active) | CCOC(=O)c1c(NC(=O)CSc2ccccc2C(=O)O)sc(C)c1C
5.96 µM (active) | > 59.6 µM (not active) | > 73.5 µM (not active) |  | IC50 [11]: 61 µM (active); EC50 [12]: 7.5 µM (active) | CCOC(=O)c1c(-c2cccc(C)c2)csc1NC(=O)C1CC=CCC1C(=O)O (centres undefined)
7.15 µM (active) | > 59.6 µM (not active) | > 73.5 µM (not active) |  |  | Cc1cc(O)nc(SCC(=O)Nc2cccc(C(F)(F)F)c2)n1
